Calls of active or inactive are those of the source. The calls are words filed in the database; no cut-off is given here. Numbered stars: 1 amine (or outer) side, 2 acyl side, 3 side chain; on linkers, the order of the positions; unused ones are H or OH. Square brackets hold non-standard residues; d marks the D form. Peptide text beside a SMILES is read from it. X1 = O=C1c2ccccc2[C@@](O)(CN(Cc2ccccc2)[*:1])N1CC(=O)[*:2]; X2 = O=C1c2ccccc2[C@](O)(CN(Cc2ccccc2)[*:1])N1CC(=O)[*:2]; Thz = O=C(O)[C@@H]1CSCN1
Tests used:
[1] = tested on: HepG2; assay: Antitumor activity against human HepG2 cells assessed as inhibition of cell growth incubated for 48 hrs by MTT assay; assay type: functional, cell-based; conditions: HepG2, 48 h
[2] = Cytotoxicity against mouse L929 cells assessed as cell growth inhibition incubated for 48 hrs by MTT assay; assay type: toxicity, cell-based
[3] = tested on: HeLa; assay: cells; conditions: Homo sapiens, 48 h
Description: Antitumor activity against human HeLa cells assessed as inhibition of cell growth incubated for 48 hrs by MTT assay

[4] = tested on: HeLa; assay: Antitumor activity against human HeLa cells assessed as inhibition of cell growth by MTT assay; assay type: functional, cell-based
[5] = tested on: HepG2; assay: Effect on cell morphology in human HepG2 cells assessed as cell shrinkage at 26.1 uM incubated for 48 hrs by fluorescent inverted microscopic analysis; assay type: functional, cell-based
[6] = tested on: HeLa; assay: Effect on cell morphology in human HeLa cells assessed as cell shrinkage at 26.1 uM incubated for 48 hrs by fluorescent inverted microscopic analysis; assay type: functional, cell-based
[7] = tested on: HepG2; assay: Effect on cell morphology in human HepG2 cells assessed as decrease in cell contact at 26.1 uM incubated for 48 hrs by fluorescent inverted microscopic analysis; assay type: functional, cell-based
[8] = tested on: HeLa; assay: Effect on cell morphology in human HeLa cells assessed as decrease in cell contact at 26.1 uM incubated for 48 hrs by fluorescent inverted microscopic analysis; assay type: functional, cell-based
[9] = tested on: HeLa; assay: Effect on cell morphology in human HeLa cells assessed as appearance of round cells at 26.1 uM incubated for 12 to 24 hrs by scanning electron microscopic analysis; assay type: functional, cell-based; conditions: time 12-24 hrs
[10] = tested on: HeLa; assay: Effect on cell morphology in human HeLa cells assessed as disappearance of finger like protrusions at 26.1 uM incubated for 12 to 24 hrs by scanning electron microscopic analysis; assay type: functional, cell-based; conditions: time 12-24 hrs
[11] = tested on: HeLa; assay: Effect on cell morphology in human HeLa cells assessed as complete disruption at 26.1 uM incubated for 48 hrs by scanning electron microscopic analysis; assay type: functional, cell-based
[12] = tested on: HeLa; assay: Induction of cell cycle arrest in human HeLa cells assessed as accumulation at G2/M phase at 12.3 uM by RNAse A/PI staining based flow cytometric analysis; assay type: functional; conditions: time 12-48 hrs, TDE = time-dependent effect
[13] = tested on: HeLa; assay: Induction of mitochondrial membrane potential loss in human HeLa cells assessed as decrease in fluorescence intensity at 6.2 to 24.6 uM incubated for 12 to 48 hrs by Rhodamine 123 staining based flow cytometric analysis; assay type: functional, cell-based; conditions: dose 6.2-24.6 µM, time 12-48 hrs
[14] = tested on: HeLa; assay: Induction of mitochondrial membrane potential loss in human HeLa cells assessed as decrease in fluorescence intensity […] at 12.3 uM by Rhodamine 123 staining based flow cytometric analysis; assay type: functional, cell-based; conditions: time 12-48 hrs, TDE = time-dependent effect
[15] = tested on: HeLa; assay: Effect on intracellular calcium ion concentration in human HeLa assessed as increase in fluorescence intensity at 12.3 uM by Fluo-3 AM staining based flow cytometric analysis; assay type: functional, cell-based
[16] = tested on: HeLa; assay: Antitumor activity against human HeLa cells assessed as inhibition of lactate dehydrogenase activity at 37.5 to 200 uM incubated for 48 hrs by Lactate dehydrogenase activity assay; assay type: functional, cell-based; conditions: dose 37.5-200 µM
[17] = tested on: HeLa; assay: Downregulation of MDM2 protein expression in human HeLa cells at 6.2 to 24.6 uM incubated for 48 hrs by Western blotting analysis; assay type: functional, cell-based; conditions: dose 6.2-24.6 µM
[18] = tested on: HeLa; assay: Upregulation of p53 protein expression in human HeLa cells at 6.2 to 24.6 uM incubated for 48 hrs by Western blotting analysis; assay type: functional, cell-based; conditions: dose 6.2-24.6 µM
[19] = tested on: HeLa; assay: Upregulation of cytochrome C expression in human HeLa cell cytosol at 6.2 to 24.6 uM incubated for 48 hrs by Western blotting analysis; assay type: functional, subcellular; conditions: dose 6.2-24.6 µM

Row | SMILES | IC50 [1] [µM] | IC50 [3] [µM] | IC50 at 48 h [2] [µM] | also measured
1 | CC[C@H](C)[C@@H]1NC(=O)[C@H](CC(C)C)NC(=O)CN2C(=O)c3ccccc3[C@@]2(O)CN(Cc2ccccc2)C(=O)[C@@H]2CSCN2C(=O)[C@@H]2CSCN2C1=O | 49 | 82.2 | 274 | –
2 | CC[C@H](C)[C@@H]1NC(=O)[C@H](CC(C)C)NC(=O)[C@@H]2CSCN2C(=O)CN2C(=O)c3ccccc3[C@]2(O)CN(Cc2ccccc2)C(=O)[C@@H]2CSCN2C1=O | 27.3 | 69.3 | 293 | –
3 | CC[C@H](C)[C@@H]1NC(=O)CN2C(=O)c3ccccc3[C@]2(O)CN(Cc2ccccc2)C(=O)[C@H](CC(C)C)NC(=O)[C@@H]2CCCN2C(=O)[C@@H]2CCCN2C1=O (cyclo(IPPL[X2])) | 37.7 | 32.7 | > 400 | –
4 | CC[C@H](C)[C@@H]1NC(=O)[C@H](CC(C)C)NC(=O)[C@@H]2CSCN2C(=O)[C@H]2CSCN2C(=O)CN2C(=O)c3ccccc3[C@@]2(O)CN(Cc2ccccc2)C1=O | – | – | – | Activity [5]: Active; Activity [6]: Active; Activity [7]: Active; Activity [8]: Active; Activity [9]: Active; Activity [10]: Active; Activity [11]: Active; Activity [12]: Tde; Activity [13]: Active; Activity [14]: Tde; Activity [15]: Active; inhibition [16]: Active; Activity [17]: Active; Activity [18]: Active; Activity [19]: Active
5 | CC[C@H](C)[C@@H]1NC(=O)[C@H](CC(C)C)NC(=O)CN2C(=O)c3ccccc3[C@@]2(O)CN(Cc2ccccc2)C(=O)[C@@H]2CCCN2C(=O)[C@@H]2CCCN2C1=O (cyclo(IPP[X1]L)) | 93.3 | 105 | 284 | –
6 | CC[C@H](C)[C@@H]1NC(=O)[C@H](CC(C)C)NC(=O)[C@@H]2CSCN2C(=O)[C@@H]2CSCN2C(=O)CN2C(=O)c3ccccc3[C@@]2(O)CN(Cc2ccccc2)C1=O | 24.7 | 12.3 | 70.9 | –
7 | COc1cccc2c1C(=O)c1c(O)c3c(c(O)c1C2=O)C[C@@](O)(C(=O)CO)C[C@@H]3O[C@H]1C[C@H](N)[C@H](O)[C@H](C)O1 [DOXORUBICIN] | 73.5 | – | 326 | –

Continued by falling IC50 [1], values first:

Row | IC50 [1] [µM] | IC50 [3] [µM] | SMILES | IC50 at 48 h [2] [µM] | also measured
8 | 40.3 | 36.5 | CC[C@H](C)[C@@H]1NC(=O)[C@H](CC(C)C)NC(=O)[C@@H]2CCCN2C(=O)[C@@H]2CCCN2C(=O)CN2C(=O)c3ccccc3[C@]2(O)CN(Cc2ccccc2)C1=O (cyclo(I[X2]PPL)) | > 400 | IC50 [4]: 36.5 µM
9 | 33.5 | 28.2 | CC[C@H](C)[C@@H]1NC(=O)[C@H](CC(C)C)NC(=O)[C@@H]2CCCN2C(=O)CN2C(=O)c3ccccc3[C@]2(O)CN(Cc2ccccc2)C(=O)[C@@H]2CCCN2C1=O (cyclo(IP[X2]PL)) | > 400 | IC50 [4]: 28.2 µM
10 | 26.9 | 23.7 | CC[C@H](C)[C@@H]1NC(=O)CN2C(=O)c3ccccc3[C@]2(O)CN(Cc2ccccc2)C(=O)[C@H](CC(C)C)NC(=O)[C@@H]2CSCN2C(=O)[C@@H]2CSCN2C1=O (cyclo(I[Thz][Thz]L[X2])) | > 400 | –
